US20240034736A1, “HSD17B13 INHIBITORS AND USES THEREOF” (FL2022-001, Inc., priority 2020, published 2024)

Molecular target: Recombinant human HSD17B13 enzyme (Homo sapiens (Human), UniProt Q7Z5P4)
Assay: HSD17b13 NAD(P)H-Glo Biochemical Assay
Details: for IC50: 50 uM estradiol, 1 mM NAD+, read-out: HSD17β13 IC50
Method in brief: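 Luminescent NAD(P)H-Glo detection (1 h, RT) quantified cofactor reduction after a 3 h, 37° C reaction of human HSD17B13 with estradiol (50 uM final) and NAD+ (1 mM final). Compounds were first pre-incubated 20 min at RT with enzyme in Tris pH 7.4 buffer containing Tween-20 and BSA.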

Recombinant human HSD17B13 enzyme, sequence (Q7Z5P4 20-300): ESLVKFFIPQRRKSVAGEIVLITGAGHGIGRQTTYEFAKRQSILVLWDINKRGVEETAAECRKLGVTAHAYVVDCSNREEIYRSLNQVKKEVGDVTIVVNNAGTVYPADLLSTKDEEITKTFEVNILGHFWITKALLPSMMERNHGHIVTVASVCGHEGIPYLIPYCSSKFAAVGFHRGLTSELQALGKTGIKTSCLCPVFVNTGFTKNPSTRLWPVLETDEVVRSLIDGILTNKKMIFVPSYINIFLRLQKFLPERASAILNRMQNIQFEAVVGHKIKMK

Row | SMILES | IC50 | inhibition at 30 µM (read-out: HSD17β13 inhibition at 30 uM)
1 | Cc1c(N2CCN(S(C)(=O)=O)CC2)ccc2c1cnn2-c1cc(O)c(F)c(F)c1 [Compound 21.14, 2,3-Difluoro-5-(4-methyl-5-(4-(methylsulfonyl)piperazin-1-yl)-1H-indazol-1-yl)phenol] | 1000 to 30000 nM | –
2 | CS(=O)(=O)N1CCN(c2ccc3c(cnn3-c3cc(O)c(F)c(F)c3)c2Cl)CC1 [Compound 21.15, 5-(4-Chloro-5-(4-(methyl-sulfonyl)piperazin-1-yl)-1H-indazol-1-yl)-2,3-difluoro-phenol] | 1000 to 30000 nM | –
3 | CS(=O)(=O)N1CCN(c2cc(Cl)c3c(cnn3-c3cc(O)c(F)c(F)c3)c2)CC1 [Compound 21.16, 5-(7-Chloro-5-(4-(methyl-sulfonyl)piperazin-1-yl)-1H-indazol-1-yl)-2,3-difluoro-phenol] | 1000 to 30000 nM | –
4 | Cc1cc(N2CCN(S(C)(=O)=O)CC2)cc2cnn(-c3cc(O)c(F)c(F)c3)c12 [Compound 21.17, 2,3-Difluoro-5-(7-methyl-5-(4-(methylsulfonyl)piperazin-1-yl)-1H-indazol-1-yl)phenol] | – | 47%
5 | COC1CCN(c2ccc3c(cnn3-c3cc(O)c(F)c(F)c3)c2)CC1 [Compound 21.20, 2,3-Difluoro-5-(5-(4-methoxy-piperidin-1-yl)-1H-indazol-1-yl)phenol] | 100 to 1000 nM | –
6 | COC1CCN(c2cc3cnn(-c4cc(O)c(F)c(F)c4)c3cc2Cl)CC1 [Compound 21.21, 5-(6-Chloro-5-(4-methoxy-piperidin-1-yl)-1H-indazol-1-yl)-2,3-difluorophenol] | 100 to 1000 nM | –
7 | COC1CCN(c2ccc3c(cnn3-c3cc(O)c(F)c(F)c3)c2)C1 (stereo not drawn) [Compound 21.22, 2,3-Difluoro-5-(5-(3-methoxy-pyrrolidin-1-yl)-1H-indazol-1-yl)phenol] | 1000 to 30000 nM | –
8 | CS(=O)(=O)N1CCN(c2cc3cnn(-c4cc(O)c(F)c(F)c4)c3cc2C#N)CC1 [Compound 21.23, 1-(3,4-Difluoro-5-hydroxy-phenyl)-5-(4-(methylsulfonyl)-piperazin-1-yl)-1H-indazole-6-carbonitrile] | 100 to 1000 nM | –
9 | COC1CN(c2ccc3c(cnn3-c3cc(O)c(F)c(F)c3)c2)C1 [Compound 21.25, 2,3-Difluoro-5-(5-(3-methoxy-azetidin-1-yl)-1H-indazol-1-yl)phenol] | 1000 to 30000 nM | –
10 | CC(C)S(=O)(=O)N1CCN(c2cc3cnn(-c4cc(O)c(F)c(F)c4)c3cc2Cl)CC1 [Compound 21.28, 5-(6-Chloro-5-(4-(isopropyl-sulfonyl)piperazin-1-yl)-1H-indazol-1-yl)-2,3-difluoro-phenol] | 100 to 1000 nM | –
11 | O=S(=O)(C1CC1)N1CCN(c2cc3cnn(-c4cc(O)c(F)c(F)c4)c3cc2Cl)CC1 [Compound 21.32, 5-(6-Chloro-5-(4-(cycloprop-ylsulfonyl)piperazin-1-yl)-1H-indazol-1-yl)-2,3-difluoro-phenol] | 100 to 1000 nM | –
12 | CC(C)S(=O)(=O)NC1CN(c2cc3cnn(-c4cc(O)c(F)c(F)c4)c3cc2Cl)C1 [Compound 21.33, N-(1-(6-Chloro-1-(3,4-difluoro-5-hydroxyphenyl)-1H-indazol-5-yl)azetidin-3-yl)propane-2-sulfonamide] | 100 to 1000 nM | –
13 | O=S(=O)(NC1CN(c2cc3cnn(-c4cc(O)c(F)c(F)c4)c3cc2Cl)C1)c1ccccc1 [Compound 21.34, N-(1-(6-Chloro-1-(3,4-difluoro-5-hydroxyphenyl)-1H-indazol-5-yl)azetidin-3-yl)benzene-sulfonamide] | 100 to 1000 nM | –
14 | CN(C)S(=O)(=O)C1CN(c2ccc3c(cnn3-c3cc(O)c(F)c(F)c3)c2)C1 [Compound 21.36, 1-(1-(3,4-Difluoro-5-hydroxy-phenyl)-1H-indazol-5-yl)-N,N-dimethylazetidine-3-sulfon-amide] | 100 to 1000 nM | –
15 | O=S(=O)(CC1CC1)NC1CN(c2cc3cnn(-c4cc(O)c(F)c(F)c4)c3cc2Cl)C1 [Compound 21.37, N-(1-(6-Chloro-1-(3,4-difluoro-5-hydroxyphenyl)-1H-indazol-5-yl)azetidin-3-yl)-1-cyclo-propylmethanesulfonamide] | 100 to 1000 nM | –
16 | O=S(=O)(CC1CC1)N1CCN(c2cc3cnn(-c4cc(O)c(F)c(F)c4)c3cc2Cl)CC1 [Compound 21.38, 5-(6-Chloro-5-(4-((cycloprop-ylmethyl)sulfonyl)piperazin-1-yl)-1H-indazol-1-yl)-2,3-difluorophenol] | 100 to 1000 nM | –
17 | O=S(=O)(c1ccccc1)N1CCN(c2cc3cnn(-c4cc(O)c(F)c(F)c4)c3cc2Cl)CC1 [Compound 21.39, 5-(6-Chloro-5-(4-(phenyl-sulfonyl)piperazin-1-yl)-1H-indazol-1-yl)-2,3-difluoro-phenol] | 100 to 1000 nM | –

The remaining lines, values ahead:

Row | IC50 | inhibition at 30 µM (read-out: HSD17β13 inhibition at 30 uM) | SMILES
18 | 100 to 1000 nM | – | CS(=O)(=O)N1CCN(c2cc3cnn(-c4cc(O)c(F)c(F)c4)c3cc2Cl)CC1 [Compound 21.13, 5-(6-Chloro-5-(4-(methyl-sulfonyl)piperazin-1-yl)-1H-indazol-1-yl)-2,3-difluoro-phenol]
19 | 1000 to 30000 nM | – | CS(=O)(=O)N1CCN(c2ccc3c(cnn3-c3cc(O)c(F)c(F)c3)n2)CC1 [Compound 21.18, 2,3-Difluoro-5-(5-(4-(methyl-sulfonyl)piperazin-1-yl)-1H-pyrazolo[4,3-b]pyridine-1-yl)-phenol]
20 | 1000 to 30000 nM | – | CS(=O)(=O)N1CCN(c2cc3cnn(-c4cc(O)c(F)c(F)c4)c3cc2C(F)(F)F)CC1 [Compound 21.19, 2,3-Difluoro-5-(5-(4-(methyl-sulfonyl)piperazin-1-yl)-6-(trifluoromethyl)-1H-indazol-1-yl)phenol]
21 | 100 to 1000 nM | – | CS(=O)(=O)N1CCN(c2cc3cnn(-c4cc(O)c(F)c(F)c4)c3cc2F)CC1 [Compound 21.24, 2,3-Difluoro-5-(6-fluoro-5-(4-(methylsulfonyl)piperazin-1-yl)-1H-indazol-1-yl)phenol]
22 | 100 to 1000 nM | – | CS(=O)(=O)N1CCCN(c2ccc3c(cnn3-c3cc(O)c(F)c(F)c3)c2)CC1 [Compound 21.26, 2,3-Difluoro-5-(5-(4-(methyl-sulfonyl)-1,4-diazepan-1-yl)-1H-indazol-1-yl)phenol]
23 | 100 to 1000 nM | – | CS(=O)(=O)N1CC2(CN(c3ccc4c(cnn4-c4cc(O)c(F)c(F)c4)c3)C2)C1 [Compound 21.27, 2,3-Difluoro-5-(5-(6-(methyl-sulfonyl)-2,6-diazaspiro[3.3]-heptan-2-yl)-1H-indazol-1-yl)phenol]
24 | 100 to 1000 nM | – | CC1(C)CN(c2ccc3c(cnn3-c3cc(O)c(F)c(F)c3)c2)CCN1S(C)(=O)=O [Compound 21.29, 5-(5-(3,3-Dimethyl-4-(methyl-sulfonyl)piperazin-1-yl)-1H-indazol-1-yl)-2,3-difluoro-phenol]
25 | 1000 to 30000 nM | – | CC1(C)CN(S(C)(=O)=O)CCN1c1ccc2c(cnn2-c2cc(O)c(F)c(F)c2)c1 [Compound 21.30, 5-(5-(2,2-Dimethyl-4-(methyl-sulfonyl)piperazin-1-yl)-1H-indazol-1-yl)-2,3-difluoro-phenol]
26 | 100 to 1000 nM | – | CS(=O)(=O)C1CN(c2ccc3c(cnn3-c3cc(O)c(F)c(F)c3)c2)C1 [Compound 21.31, 2,3-Difluoro-5-(5-(3-(methyl-sulfonyl)azetidin-1-yl)-1H-indazol-1-yl)phenol]
27 | 1000 to 30000 nM | – | CNS(=O)(=O)C1CN(c2ccc3c(cnn3-c3cc(O)c(F)c(F)c3)c2)C1 [Compound 21.35, 1-(1-(3,4-Difluoro-5-hydroxy-phenyl)-1H-indazol-5-yl)-N-methylazetidine-3-sulfonamide]
28 | 100 to 1000 nM | – | CS(=O)(=O)N1CCN(c2cc3cnn(-c4cc(O)c(F)c(F)c4)c3cn2)CC1 [Compound 21.40, 2,3-Difluoro-5-(5-(4-(methyl-sulfonyl)piperazin-1-yl)-1H-pyrazolo[3,4-c]pyridine-1-yl)-phenol]
29 | 100 to 1000 nM | – | CS(=O)(=O)N1CCN(c2cc3cnn(-c4cc(O)c(F)c(C(F)(F)F)c4)c3cn2)CC1 [Compound 21.41, 2-Fluoro-5-(5-(4-(methyl-sulfonyl)piperazin-1-yl)-1H-pyrazolo[3,4-c]pyridine-1-yl)-3-(trifluoromethyl)phenol]
30 | 100 to 1000 nM | – | Oc1cc(-n2ncc3cc(N4CCCCC4)ncc32)cc(C(F)(F)F)c1F [Compound 21.42, 2-Fluoro-5-(5-(piperidin-1-yl)-1H-pyrazolo[3,4-c]pyridine-1-yl)-3-(trifluoromethyl)phenol]
31 | 100 to 1000 nM | – | CC1(C)CCN(c2cc3cnn(-c4cc(O)c(F)c(C(F)(F)F)c4)c3cn2)CC1 [Compound 21.43, 5-(5-(4,4-Dimethylpiperidin-1-yl)-1H-pyrazolo[3,4-c]-pyridine-1-yl)-2-fluoro-3-(trifluoromethyl)phenol]
32 | < 100 nM | – | Oc1cc(-n2ncc3cc(N4CCC5(CC4)CC5)ncc32)cc(C(F)(F)F)c1F [Compound 21.44, 5-(5-(6-Azaspiro[2.5]octan-6-yl)-1H-pyrazolo[3,4-c]pyridine-1-yl)-2-fluoro-3-(trifluoro-methyl)phenol]
33 | 100 to 1000 nM | – | CS(=O)(=O)N1CCN(c2ccc3c(cnn3-c3cc(O)c(F)c(C(F)(F)F)c3)c2)C2(CC2)C1 [Compound 21.45, 2-Fluoro-5-(5-(7-(methyl-sulfonyl)-4,7-diazaspiro[2.5]-octan-4-yl)-1H-indazol-1-yl)-3-(trifluoromethyl)phenol]
34 | 100 to 1000 nM | – | CS(=O)(=O)N1CCN(c2ccc3c(cnn3-c3cc(O)c(F)c(C(F)(F)F)c3)c2)C2(CCC2)C1 [Compound 21.46, 2-Fluoro-5-(5-(8-(methyl-sulfonyl)-5,8-diazaspiro[3.5]-nonan-5-yl)-1H-indazol-1-yl)-3-(trifluoromethyl)phenol]
35 | 100 to 1000 nM | – | CC1CN(S(C)(=O)=O)CCN1c1ccc2c(cnn2-c2cc(O)c(F)c(C(F)(F)F)c2)c1 (stereo not drawn) [Compound 21.47, 2-Fluoro-5-(5-(2-methyl-4-(methylsulfonyl)piperazin-1-yl)-1H-indazol-1-yl)-3-(trifluoromethyl)phenol]
36 | 1000 to 30000 nM | – | CC1(C)CN(S(C)(=O)=O)CCN1c1ccc2c(cnn2-c2cc(O)c(F)c(C(F)(F)F)c2)c1 [Compound 21.48, 5-(5-(2,2-Dimethyl-4-(methyl-sulfonyl)piperazin-1-yl)-1H-indazol-1-yl)-2-fluoro-3-(trifluoromethyl)phenol]
